Experimental data from ChEMBL document CHEMBL4118098, “Discovery of DS28120313 as a potent orally active hepcidin production inhibitor: Design and optimization of novel 4,6-disubstituted indazole derivatives” (Bioorg Med Chem Lett, 2017).
One block for each molecule: values may come before it.

How the values were obtained:
[1] = biological target: Mitogen-activated protein kinase 1 (Homo sapiens) (UniProt P28482); test: Inhibition of Erk2 (unknown origin) at 0.19 uM relative to control
[2] = biological target: Proto-oncogene tyrosine-protein kinase receptor Ret (Homo sapiens) (UniProt P07949); test: Inhibition of RET (unknown origin) at 0.19 uM relative to control
[3] = biological target: Cyclin-dependent kinase 1/cyclin B1 (Homo sapiens) (UniProt P06493+P14635); test: Inhibition of CDK1/Cyclin B1 (unknown origin) at 0.19 uM relative to control; assay type: protein-complex assay
[4] = biological target: Serine/threonine-protein kinase pim-2 (Homo sapiens) (UniProt Q9P1W9); test: Inhibition of PIM2 (unknown origin) at 0.19 uM relative to control
[5] = biological target: Fibroblast growth factor receptor 2 (Homo sapiens) (UniProt P21802); test: Inhibition of FGFR2 (unknown origin) at 0.19 uM relative to control
[6] = biological target: Protein kinase C epsilon type (Homo sapiens) (UniProt Q02156); test: Inhibition of PKC-epsilon (unknown origin) at 0.19 uM relative to control
[7] = biological target: Ephrin type-A receptor 3 (Homo sapiens) (UniProt P29320); test: Inhibition of EPHA3 (unknown origin) at 0.19 uM relative to control
[8] = biological target: Tyrosine-protein kinase Lyn (Homo sapiens) (UniProt P07948); test: Inhibition of LYNB (unknown origin) at 0.19 uM relative to control
Sequence of Tyrosine-protein kinase Lyn (Homo sapiens) (P07948 2-512 limits assumed): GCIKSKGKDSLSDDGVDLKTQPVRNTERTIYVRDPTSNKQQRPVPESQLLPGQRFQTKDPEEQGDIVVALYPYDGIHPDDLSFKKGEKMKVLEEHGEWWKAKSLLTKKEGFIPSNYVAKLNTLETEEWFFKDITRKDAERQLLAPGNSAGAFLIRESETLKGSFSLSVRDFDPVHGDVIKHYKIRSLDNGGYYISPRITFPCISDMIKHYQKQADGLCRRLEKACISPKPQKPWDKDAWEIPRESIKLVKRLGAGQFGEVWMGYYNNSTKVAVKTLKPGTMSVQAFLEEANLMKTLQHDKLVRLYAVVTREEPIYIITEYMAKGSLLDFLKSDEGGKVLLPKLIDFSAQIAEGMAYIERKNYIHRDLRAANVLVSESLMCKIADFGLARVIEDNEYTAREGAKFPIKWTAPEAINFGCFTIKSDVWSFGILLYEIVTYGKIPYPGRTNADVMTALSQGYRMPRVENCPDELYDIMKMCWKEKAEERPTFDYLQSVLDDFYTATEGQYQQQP

[9] = tested on: Tyrosine-protein kinase ABL1 (Homo sapiens), P00519 [Y253F]; test: Inhibition of ABL1 Y253F mutant (unknown origin) at 0.19 uM relative to control
[10] = biological target: Serine/threonine-protein kinase 24 (Homo sapiens) (UniProt Q9Y6E0); test: Inhibition of MST3 (unknown origin) at 0.19 uM relative to control
[11] = biological target: Calcium/calmodulin-dependent protein kinase type 1 (Homo sapiens) (UniProt Q14012); test: Inhibition of CaMK1a (unknown origin) at 0.19 uM relative to control
Sequence of Calcium/calmodulin-dependent protein kinase type 1 (Homo sapiens) (Q14012 whole entry, looked up): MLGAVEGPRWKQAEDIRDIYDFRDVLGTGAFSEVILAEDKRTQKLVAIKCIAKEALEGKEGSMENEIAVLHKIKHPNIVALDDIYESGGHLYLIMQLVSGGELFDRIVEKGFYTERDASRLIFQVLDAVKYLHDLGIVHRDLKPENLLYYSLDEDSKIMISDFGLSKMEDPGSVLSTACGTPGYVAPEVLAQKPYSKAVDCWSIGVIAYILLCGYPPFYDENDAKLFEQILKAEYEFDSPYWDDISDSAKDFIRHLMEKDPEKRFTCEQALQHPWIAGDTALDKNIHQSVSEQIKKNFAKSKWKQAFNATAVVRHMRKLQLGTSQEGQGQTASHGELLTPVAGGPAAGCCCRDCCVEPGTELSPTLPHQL

[12] = biological target: Activated CDC42 kinase 1 (Homo sapiens) (UniProt Q07912); test: Inhibition of ACK (unknown origin) at 0.19 uM relative to control
[13] = biological target: Tyrosine-protein kinase Fer (Homo sapiens) (UniProt P16591); test: Inhibition of Fer (unknown origin) at 0.19 uM relative to control
[14] = biological target: RAC-gamma serine/threonine-protein kinase (Homo sapiens) (UniProt Q9Y243); test: Inhibition of AKT3 (unknown origin) at 0.19 uM relative to control
[15] = biological target: Phosphorylase b kinase gamma catalytic chain, skeletal muscle/heart isoform (Homo sapiens) (UniProt Q16816); test: Inhibition of PhKg1 (unknown origin) at 0.19 uM relative to control
[16] = biological target: Homeodomain-interacting protein kinase 2 (Homo sapiens) (UniProt Q9H2X6); test: Inhibition of HIPK2 (unknown origin) at 0.19 uM relative to control
[17] = biological target: Mitogen-activated protein kinase kinase kinase kinase 5 (Homo sapiens) (UniProt Q9Y4K4); test: Inhibition of KHS1 (unknown origin) at 0.19 uM relative to control
Sequence of Mitogen-activated protein kinase kinase kinase kinase 5 (Homo sapiens) (Q9Y4K4 whole entry, looked up): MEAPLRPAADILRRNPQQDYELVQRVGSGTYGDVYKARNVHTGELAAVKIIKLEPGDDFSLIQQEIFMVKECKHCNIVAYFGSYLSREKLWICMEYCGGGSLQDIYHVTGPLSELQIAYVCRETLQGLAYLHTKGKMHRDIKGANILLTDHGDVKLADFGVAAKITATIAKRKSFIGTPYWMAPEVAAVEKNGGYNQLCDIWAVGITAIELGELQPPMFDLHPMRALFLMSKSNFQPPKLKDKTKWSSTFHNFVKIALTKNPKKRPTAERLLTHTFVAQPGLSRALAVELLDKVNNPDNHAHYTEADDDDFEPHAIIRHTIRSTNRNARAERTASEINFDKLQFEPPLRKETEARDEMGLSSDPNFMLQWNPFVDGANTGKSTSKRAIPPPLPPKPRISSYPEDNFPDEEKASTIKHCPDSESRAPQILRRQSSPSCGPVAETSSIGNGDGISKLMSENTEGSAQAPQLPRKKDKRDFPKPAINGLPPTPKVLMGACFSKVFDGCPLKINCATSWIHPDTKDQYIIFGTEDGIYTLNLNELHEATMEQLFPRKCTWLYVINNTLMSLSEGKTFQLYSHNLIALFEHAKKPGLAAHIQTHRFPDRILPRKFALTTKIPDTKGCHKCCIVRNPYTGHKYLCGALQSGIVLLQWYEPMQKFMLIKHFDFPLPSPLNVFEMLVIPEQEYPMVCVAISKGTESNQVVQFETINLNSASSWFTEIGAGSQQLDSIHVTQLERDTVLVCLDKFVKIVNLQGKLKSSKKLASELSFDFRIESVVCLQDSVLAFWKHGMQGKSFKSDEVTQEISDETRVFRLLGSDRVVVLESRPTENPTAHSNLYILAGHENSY

[18] = biological target: Serine/threonine-protein kinase 25 (Homo sapiens) (UniProt O00506); test: Inhibition of YSK (unknown origin) at 0.19 uM relative to control
[19] = biological target: MAP kinase-interacting serine/threonine-protein kinase 2 (Homo sapiens) (UniProt Q9HBH9); test: Inhibition of MNK2 (unknown origin) at 0.19 uM relative to control
[20] = biological target: MAP/microtubule affinity-regulating kinase 3 (Homo sapiens) (UniProt P27448); test: Inhibition of c-TAK1 (unknown origin) at 0.19 uM relative to control
Sequence of MAP/microtubule affinity-regulating kinase 3 (Homo sapiens) (P27448 whole entry, looked up): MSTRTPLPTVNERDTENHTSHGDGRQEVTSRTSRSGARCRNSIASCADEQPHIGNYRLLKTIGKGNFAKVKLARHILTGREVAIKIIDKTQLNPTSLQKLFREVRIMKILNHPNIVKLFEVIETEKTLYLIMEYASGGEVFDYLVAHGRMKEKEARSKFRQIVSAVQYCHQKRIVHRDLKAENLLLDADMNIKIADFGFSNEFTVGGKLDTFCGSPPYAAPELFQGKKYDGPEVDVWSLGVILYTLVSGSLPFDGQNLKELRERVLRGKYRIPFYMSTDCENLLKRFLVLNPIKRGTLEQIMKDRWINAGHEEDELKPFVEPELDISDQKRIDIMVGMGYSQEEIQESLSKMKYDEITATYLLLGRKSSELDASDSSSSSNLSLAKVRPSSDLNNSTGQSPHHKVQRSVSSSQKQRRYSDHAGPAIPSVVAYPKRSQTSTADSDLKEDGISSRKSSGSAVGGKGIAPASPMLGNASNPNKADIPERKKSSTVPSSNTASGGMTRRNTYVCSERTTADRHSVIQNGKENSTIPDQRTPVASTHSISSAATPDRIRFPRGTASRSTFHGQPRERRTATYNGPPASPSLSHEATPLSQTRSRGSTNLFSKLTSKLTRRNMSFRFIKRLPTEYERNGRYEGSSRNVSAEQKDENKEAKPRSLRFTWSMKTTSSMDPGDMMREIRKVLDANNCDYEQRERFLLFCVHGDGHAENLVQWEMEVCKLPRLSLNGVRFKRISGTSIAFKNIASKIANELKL

[21] = Fraction unbound in mouse plasma; assay type: ADME, cell-free
[22] = biological target: Tyrosine-protein kinase ABL1 (Homo sapiens) (UniProt P00519); test: Inhibition of ABL (unknown origin) at 0.164 uM relative to control
[23] = biological target: Proto-oncogene tyrosine-protein kinase Src (Homo sapiens) (UniProt P12931); test: Inhibition of SRC (unknown origin) at 0.164 uM relative to control
[24] = biological target: NT-3 growth factor receptor (Homo sapiens) (UniProt Q16288); test: Inhibition of TRKC (unknown origin) at 0.164 uM relative to control
[25] = biological target: Ribosomal protein S6 kinase (Homo sapiens) (UniProt P51812+Q9UBS0+O75676+Q15349+O75582+P23443+Q9UK32+Q15418); test: Inhibition of p70S6K (unknown origin) at 0.164 uM relative to control; assay type: protein assay
[26] = biological target: Glycogen synthase kinase-3 alpha (Homo sapiens) (UniProt P49840); test: Inhibition of GSK3-alpha (unknown origin) at 0.164 uM relative to control
[27] = biological target: Platelet-derived growth factor receptor beta (Homo sapiens) (UniProt P09619); test: Inhibition of PDGFR beta (unknown origin) at 0.164 uM relative to control
[28] = biological target: Calcium/calmodulin-dependent protein kinase type 1D (Homo sapiens) (UniProt Q8IU85); test: Inhibition of CamK1d (unknown origin) at 0.164 uM relative to control
[29] = biological target: Dual specificity tyrosine-phosphorylation-regulated kinase 4 (Homo sapiens) (UniProt Q9NR20); test: Inhibition of DYRK4 (unknown origin) at 0.164 uM relative to control
Sequence of Dual specificity tyrosine-phosphorylation-regulated kinase 4 (Homo sapiens) (Q9NR20 whole entry): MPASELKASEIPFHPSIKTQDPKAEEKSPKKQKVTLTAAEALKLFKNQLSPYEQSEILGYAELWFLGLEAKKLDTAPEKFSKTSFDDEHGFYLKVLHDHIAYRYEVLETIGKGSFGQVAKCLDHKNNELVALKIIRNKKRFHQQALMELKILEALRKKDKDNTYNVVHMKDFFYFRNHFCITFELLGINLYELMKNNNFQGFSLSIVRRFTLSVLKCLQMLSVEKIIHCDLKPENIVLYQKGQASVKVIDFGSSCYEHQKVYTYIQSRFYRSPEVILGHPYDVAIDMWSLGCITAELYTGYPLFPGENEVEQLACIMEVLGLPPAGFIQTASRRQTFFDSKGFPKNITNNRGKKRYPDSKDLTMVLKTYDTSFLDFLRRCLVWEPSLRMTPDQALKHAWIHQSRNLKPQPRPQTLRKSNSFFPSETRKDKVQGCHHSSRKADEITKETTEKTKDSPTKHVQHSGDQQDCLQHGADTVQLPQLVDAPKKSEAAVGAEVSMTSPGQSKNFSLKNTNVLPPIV

[30] = biological target: Ephrin type-A receptor 8 (Homo sapiens) (UniProt P29322); test: Inhibition of EPHA8 (unknown origin) at 0.164 uM relative to control
Sequence of Ephrin type-A receptor 8 (Homo sapiens) (P29322 whole entry): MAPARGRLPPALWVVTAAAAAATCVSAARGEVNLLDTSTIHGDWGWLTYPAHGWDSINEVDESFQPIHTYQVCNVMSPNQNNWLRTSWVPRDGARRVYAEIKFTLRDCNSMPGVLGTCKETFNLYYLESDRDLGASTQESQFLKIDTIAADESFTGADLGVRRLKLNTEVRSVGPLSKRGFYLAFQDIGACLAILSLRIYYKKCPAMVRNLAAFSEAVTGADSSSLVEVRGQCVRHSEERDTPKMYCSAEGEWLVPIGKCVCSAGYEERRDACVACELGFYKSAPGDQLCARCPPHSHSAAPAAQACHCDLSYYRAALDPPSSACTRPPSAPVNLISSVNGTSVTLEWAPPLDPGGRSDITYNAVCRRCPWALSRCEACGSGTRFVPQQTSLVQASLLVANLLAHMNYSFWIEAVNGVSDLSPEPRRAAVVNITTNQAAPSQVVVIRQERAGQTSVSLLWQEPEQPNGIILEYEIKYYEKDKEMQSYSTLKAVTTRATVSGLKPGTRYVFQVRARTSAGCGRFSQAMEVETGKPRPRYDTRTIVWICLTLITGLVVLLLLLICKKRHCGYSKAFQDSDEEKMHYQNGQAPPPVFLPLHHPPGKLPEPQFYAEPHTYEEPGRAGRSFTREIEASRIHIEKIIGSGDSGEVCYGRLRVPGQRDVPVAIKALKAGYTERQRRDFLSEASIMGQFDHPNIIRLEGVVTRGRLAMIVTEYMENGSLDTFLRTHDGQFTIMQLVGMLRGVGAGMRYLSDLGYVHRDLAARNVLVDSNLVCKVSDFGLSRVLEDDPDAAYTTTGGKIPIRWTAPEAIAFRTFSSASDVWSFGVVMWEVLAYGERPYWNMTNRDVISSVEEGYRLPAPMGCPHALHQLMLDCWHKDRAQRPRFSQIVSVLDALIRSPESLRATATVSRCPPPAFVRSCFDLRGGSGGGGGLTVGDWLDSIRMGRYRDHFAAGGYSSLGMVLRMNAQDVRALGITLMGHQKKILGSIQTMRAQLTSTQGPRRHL

[31] = tested on: Fibroblast growth factor receptor 4 (Homo sapiens), P22455 [V550L]; test: Inhibition of FGFR4 V550L mutant (unknown origin) at 0.164 uM relative to control
[32] = biological target: Tyrosine-protein kinase Fes/Fps (Homo sapiens) (UniProt P07332); test: Inhibition of FES (unknown origin) at 0.45 uM relative to control
Sequence of Tyrosine-protein kinase Fes/Fps (Homo sapiens) (P07332 whole entry): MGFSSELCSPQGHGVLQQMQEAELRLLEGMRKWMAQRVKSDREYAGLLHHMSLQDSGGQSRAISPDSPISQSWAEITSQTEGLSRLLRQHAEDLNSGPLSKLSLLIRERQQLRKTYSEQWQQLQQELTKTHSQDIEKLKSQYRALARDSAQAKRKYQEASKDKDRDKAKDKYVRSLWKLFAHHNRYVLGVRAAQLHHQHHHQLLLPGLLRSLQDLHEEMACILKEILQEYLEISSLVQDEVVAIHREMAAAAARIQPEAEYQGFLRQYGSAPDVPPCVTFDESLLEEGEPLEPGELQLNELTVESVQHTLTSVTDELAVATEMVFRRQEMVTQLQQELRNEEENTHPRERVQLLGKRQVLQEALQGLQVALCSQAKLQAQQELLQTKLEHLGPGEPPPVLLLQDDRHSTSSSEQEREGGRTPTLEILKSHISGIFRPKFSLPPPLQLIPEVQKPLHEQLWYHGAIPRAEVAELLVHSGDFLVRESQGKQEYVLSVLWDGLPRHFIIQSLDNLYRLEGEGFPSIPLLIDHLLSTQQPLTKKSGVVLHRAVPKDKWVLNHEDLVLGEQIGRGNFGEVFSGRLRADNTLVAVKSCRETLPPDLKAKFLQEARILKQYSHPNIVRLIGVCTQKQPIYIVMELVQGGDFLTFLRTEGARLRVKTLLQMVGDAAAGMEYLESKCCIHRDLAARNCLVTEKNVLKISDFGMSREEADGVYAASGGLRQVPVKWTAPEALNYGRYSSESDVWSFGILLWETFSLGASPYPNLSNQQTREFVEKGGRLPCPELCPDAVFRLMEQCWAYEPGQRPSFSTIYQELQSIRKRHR

[33] = biological target: Aurora kinase C (Homo sapiens) (UniProt Q9UQB9); test: Inhibition of AurC (unknown origin) at 0.45 uM relative to control
[34] = biological target: T1, Testis-specific serine/threonine-protein kinase 2 (Homo sapiens) (UniProt Q96PF2); test: Inhibition of TSSK2 (unknown origin) at 0.45 uM relative to control
T1 sequence (whole entry): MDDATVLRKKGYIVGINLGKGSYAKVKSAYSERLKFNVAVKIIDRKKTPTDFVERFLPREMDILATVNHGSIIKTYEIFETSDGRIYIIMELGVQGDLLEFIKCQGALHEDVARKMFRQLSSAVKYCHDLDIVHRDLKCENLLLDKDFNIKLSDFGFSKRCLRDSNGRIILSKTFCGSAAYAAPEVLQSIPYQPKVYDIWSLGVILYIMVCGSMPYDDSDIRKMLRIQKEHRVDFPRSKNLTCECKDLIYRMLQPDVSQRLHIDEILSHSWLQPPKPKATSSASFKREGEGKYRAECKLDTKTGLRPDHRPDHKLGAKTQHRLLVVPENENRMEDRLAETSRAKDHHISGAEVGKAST

inhibition [1]: 4.7% | inhibition [2]: 47.3% | inhibition [3]: 2.3% | inhibition [4]: 2% | inhibition [5]: 4% | inhibition [6]: 3% | inhibition [7]: 1.3% | inhibition [8]: 10.7% | inhibition [9]: 69.3% | inhibition [10]: 33% | inhibition [11]: 0.3% | inhibition [12]: 3% | inhibition [13]: -2.3% | inhibition [14]: 0.7% | inhibition [15]: 2% | inhibition [16]: 2.7% | inhibition [17]: 80.3% | inhibition [18]: 20% | inhibition [19]: 0% | inhibition [20]: 0.3%
Compound: Cc1[nH]nc(C2CC2)c1-c1ccc2c(-c3ccc(N4CCN(C)CC4)nc3)n[nH]c2c1

fraction unbound [21]: 0.24 | inhibition [22]: 7% | inhibition [23]: 5.7% | inhibition [24]: 7.3% | inhibition [25]: 14.7% | inhibition [26]: 1% | inhibition [27]: 21% | inhibition [28]: -9.3% | inhibition [29]: 2.7% | inhibition [30]: -1.7% | inhibition [31]: 1.7%
Compound: COC(=O)Nc1cc(-c2c(C3CC3)n[nH]c2C)cc2[nH]ncc12

inhibition [32]: -3.3% | inhibition [33]: -1% | inhibition [34]: -3%
Compound: Cc1n[nH]c(C)c1-c1ccc2c(NC(=O)c3ccc(N4CCN(C)CC4)cc3)n[nH]c2c1
